Experimental data from ChEMBL document CHEMBL4184222, “A multifaceted approach to identify non-specific enzyme inhibition: Application to Mycobacterium tuberculosis shikimate kinase” (Bioorg Med Chem Lett, 2018).
≈ marks a conversion by molar mass, not a printed value.

What was measured:
[1] = tested on: Mycobacterium tuberculosis; assay: Inhibition of Mycobacterium tuberculosis shikimate kinase assessed as reduction in S3P production at 100 uM pre-incubated with 0.02 uM enzyme for 30 mins before ATP and shikimate substrate addition in absence of Triton X-100 by LC-MS assay
[2] = Aggregation property of the compound in ammonium acetate buffer at pH 7.6 assessed as particle size at 100 uM in absence of Triton X-100 by transmission electron microscopy; type: physicochemical; details: pH 7.6, 100 µM
[3] = Aggregation property of the compound in ammonium acetate buffer at pH 7.6 assessed as particle size at 100 uM in presence of Triton X-100 by dynamic light scattering method; type: physicochemical; details: pH 7.6, 100 µM
[4] = Aggregation property of the compound in water at pH 7 assessed as particle size at 100 uM in absence of Triton X-100 by dynamic light scattering method; type: physicochemical; details: buffer, pH 7, 100 µM
[5] = Aggregation property of the compound in ammonium acetate buffer at pH 7.6 assessed as light scattering intensity counts at 100 uM in absence of Triton X-100 by dynamic light scattering method; type: physicochemical; details: pH 7.6, 100 µM
[6] = tested on: Mycobacterium tuberculosis; assay: Inhibition of Mycobacterium tuberculosis shikimate kinase assessed as reduction in S3P production at 100 uM pre-incubated with 0.2 uM enzyme for 30 mins before ATP and shikimate substrate addition in absence of Triton X-100 by LC-MS assay
[7] = Inhibition of Mycobacterium tuberculosis shikimate kinase assessed as reduction in S3P production […] pre-incubated with 0.015 uM enzyme for 30 mins before ATP and shikimate substrate addition by LC-MS assay
[8] = tested on: Mycobacterium tuberculosis; assay: Inhibition of Mycobacterium tuberculosis shikimate kinase assessed as reduction in S3P production at 100 uM pre-incubated with 0.2 uM enzyme for 30 mins before ATP and shikimate substrate addition in presence of Triton X-100 by LC-MS assay
[9] = Aggregation property of the compound in ammonium acetate buffer at pH 7.6 assessed as particle size at 100 uM in absence of Triton X-100 by dynamic light scattering method; type: physicochemical; details: pH 7.6, 100 µM
[10] = Aggregation property of the compound in water at pH 7 assessed as particle size at 100 uM in presence of Triton X-100 by dynamic light scattering method; type: physicochemical; details: buffer, pH 7, 100 µM
[11] = Aggregation property of the compound in ammonium acetate buffer at pH 7.6 assessed as light scattering intensity counts at 100 uM in presence of Triton X-100 by dynamic light scattering method; type: physicochemical; details: pH 7.6, 100 µM
[12] = tested on: Mycobacterium tuberculosis; assay: Inhibition of Mycobacterium tuberculosis shikimate kinase assessed as reduction in S3P production at 100 uM pre-incubated with 0.02 uM enzyme for 30 mins before ATP and shikimate substrate addition in presence of Triton X-100 by LC-MS assay
[13] = Aggregation property of the compound in ammonium acetate buffer at pH 7.6 assessed as particle size at 100 uM in presence of Triton X-100 by transmission electron microscopy; type: physicochemical; details: pH 7.6, 100 µM
[14] = tested on: Mycobacterium tuberculosis; assay: Antimycobacterial activity against Mycobacterium tuberculosis H37Rv; type: functional
[15] = tested on: Mycobacterium tuberculosis; assay: Inhibition of Mycobacterium tuberculosis shikimate kinase assessed as reduction in S3P production at <50 uM pre-incubated for 30 mins before ATP and shikimate substrate addition by LC-MS assay
[16] = Aggregation property of the compound in water at pH 7 assessed as light scattering intensity counts at 100 uM in absence of Triton X-100 by dynamic light scattering method; type: physicochemical; details: buffer, pH 7, 100 µM
[17] = Aggregation property of the compound in water at pH 7 assessed as light scattering intensity counts at 100 uM in presence of Triton X-100 by dynamic light scattering method; type: physicochemical; details: buffer, pH 7, 100 µM
[18] = Aggregation property of the compound in potassium phosphate buffer at pH 7.2 assessed as micelle formation by measuring peal broadening at 6.25 to 200 uM by one-dimensional 1H-NMR spectroscopy; type: physicochemical; details: pH 7.2, 200 µM
[19] = Inhibition of Mycobacterium tuberculosis shikimate kinase assessed as reduction in S3P production pre-incubated for 30 mins before ATP and shikimate substrate addition by LC-MS assay
[20] = Aggregation property of the compound in ammonium acetate buffer at pH 7.6 assessed as particle size at 30 uM in presence of Triton X-100 by transmission electron microscopy; type: physicochemical; details: pH 7.6, 30 µM
[21] = Aggregation property of the compound in water at pH 7 assessed as light scattering intensity counts at 3 uM in presence of Triton X-100 by dynamic light scattering method; type: physicochemical; details: buffer, pH 7, 3 µM
[22] = Aggregation property of the compound in ammonium acetate buffer at pH 7.6 assessed as particle size at 30 uM in presence of Triton X-100 by dynamic light scattering method; type: physicochemical; details: pH 7.6, 30 µM
[23] = Aggregation property of the compound in water at pH 7 assessed as particle size at 30 uM in presence of Triton X-100 by dynamic light scattering method; type: physicochemical; details: buffer, pH 7, 30 µM
[24] = Aggregation property of the compound in ammonium acetate buffer at pH 7.6 assessed as particle size at 3 uM in presence of Triton X-100 by dynamic light scattering method; type: physicochemical; details: pH 7.6, 3 µM
[25] = Aggregation property of the compound in ammonium acetate buffer at pH 7.6 assessed as light scattering intensity counts at 3 uM in presence of Triton X-100 by dynamic light scattering method; type: physicochemical; details: pH 7.6, 3 µM
[26] = Aggregation property of the compound in ammonium acetate buffer at pH 7.6 assessed as light scattering intensity counts at 30 uM in absence of Triton X-100 by dynamic light scattering method; type: physicochemical; details: pH 7.6, 30 µM
[27] = Aggregation property of the compound in ammonium acetate buffer at pH 7.6 assessed as particle size at 10 uM in absence of Triton X-100 by dynamic light scattering method; type: physicochemical; details: pH 7.6, 10 µM
[28] = Aggregation property of the compound in water at pH 7 assessed as particle size at 3 uM in absence of Triton X-100 by dynamic light scattering method; type: physicochemical; details: buffer, pH 7, 3 µM
[29] = Aggregation property of the compound in water at pH 7 assessed as light scattering intensity counts at 30 uM in absence of Triton X-100 by dynamic light scattering method; type: physicochemical; details: buffer, pH 7, 30 µM
[30] = Aggregation property of the compound in ammonium acetate buffer at pH 7.6 assessed as particle size at 3 uM in absence of Triton X-100 by dynamic light scattering method; type: physicochemical; details: pH 7.6, 3 µM
[31] = Aggregation property of the compound in water at pH 7 assessed as light scattering intensity counts at 30 uM in presence of Triton X-100 by dynamic light scattering method; type: physicochemical; details: buffer, pH 7, 30 µM
[32] = Aggregation property of the compound in ammonium acetate buffer at pH 7.6 assessed as particle size at 10 uM in presence of Triton X-100 by dynamic light scattering method; type: physicochemical; details: pH 7.6, 10 µM
[33] = Aggregation property of the compound in ammonium acetate buffer at pH 7.6 assessed as particle size at 30 uM in absence of Triton X-100 by transmission electron microscopy; type: physicochemical; details: pH 7.6, 30 µM
[34] = Aggregation property of the compound in ammonium acetate buffer at pH 7.6 assessed as light scattering intensity counts at 10 uM in presence of Triton X-100 by dynamic light scattering method; type: physicochemical; details: pH 7.6, 10 µM
[35] = Aggregation property of the compound in ammonium acetate buffer at pH 7.6 assessed as light scattering intensity counts at 3 uM in absence of Triton X-100 by dynamic light scattering method; type: physicochemical; details: pH 7.6, 3 µM
[36] = Aggregation property of the compound in ammonium acetate buffer at pH 7.6 assessed as particle size at 30 uM in absence of Triton X-100 by dynamic light scattering method; type: physicochemical; details: pH 7.6, 30 µM
[37] = Aggregation property of the compound in water at pH 7 assessed as particle size at 10 uM in absence of Triton X-100 by dynamic light scattering method; type: physicochemical; details: buffer, pH 7, 10 µM
[38] = tested on: Mycobacterium tuberculosis; assay: Inhibition of Mycobacterium tuberculosis shikimate kinase assessed as reduction in S3P production at 30 uM pre-incubated with 0.2 uM enzyme for 30 mins before ATP and shikimate substrate addition in presence of Triton X-100 by LC-MS assay
[39] = Aggregation property of the compound in water at pH 7 assessed as particle size at 30 uM in absence of Triton X-100 by dynamic light scattering method; type: physicochemical; details: buffer, pH 7, 30 µM
[40] = Aggregation property of the compound in water at pH 7 assessed as particle size at 3 uM in presence of Triton X-100 by dynamic light scattering method; type: physicochemical; details: buffer, pH 7, 3 µM
[41] = tested on: Mycobacterium tuberculosis; assay: Inhibition of Mycobacterium tuberculosis shikimate kinase assessed as reduction in S3P production at 30 uM pre-incubated with 0.02 uM enzyme for 30 mins before ATP and shikimate substrate addition in presence of Triton X-100 by LC-MS assay
[42] = Aggregation property of the compound in ammonium acetate buffer at pH 7.6 assessed as light scattering intensity counts at 10 uM in absence of Triton X-100 by dynamic light scattering method; type: physicochemical; details: pH 7.6, 10 µM
[43] = Aggregation property of the compound in water at pH 7 assessed as particle size at 10 uM in presence of Triton X-100 by dynamic light scattering method; type: physicochemical; details: buffer, pH 7, 10 µM
[44] = Aggregation property of the compound in water at pH 7 assessed as light scattering intensity counts at 3 uM in absence of Triton X-100 by dynamic light scattering method; type: physicochemical; details: buffer, pH 7, 3 µM
[45] = tested on: Mycobacterium tuberculosis; assay: Inhibition of Mycobacterium tuberculosis shikimate kinase assessed as reduction in S3P production at 30 uM pre-incubated with 0.2 uM enzyme for 30 mins before ATP and shikimate substrate addition in absence of Triton X-100 by LC-MS assay
[46] = Aggregation property of the compound in ammonium acetate buffer at pH 7.6 assessed as light scattering intensity counts at 30 uM in presence of Triton X-100 by dynamic light scattering method; type: physicochemical; details: pH 7.6, 30 µM
[47] = Aggregation property of the compound in water at pH 7 assessed as light scattering intensity counts at 10 uM in absence of Triton X-100 by dynamic light scattering method; type: physicochemical; details: buffer, pH 7, 10 µM
[48] = Aggregation property of the compound in water at pH 7 assessed as light scattering intensity counts at 10 uM in presence of Triton X-100 by dynamic light scattering method; type: physicochemical; details: buffer, pH 7, 10 µM
[49] = tested on: Mycobacterium tuberculosis; assay: Inhibition of Mycobacterium tuberculosis shikimate kinase assessed as reduction in S3P production at 30 uM pre-incubated with 0.02 uM enzyme for 30 mins before ATP and shikimate substrate addition in absence of Triton X-100 by LC-MS assay

`CSc1ccc2nc(Nc3nc4ccc(NC(C)=O)cc4s3)sc2c1` showed an inhibition [1] of 97.4%, an Activity [2] of 0.7 um and an Activity [3] of 271 nm. It also gave an Activity [4] of 1438 nm, an Activity [5] of 285 kCounts and an inhibition [6] of 0%. For the same compound, the IC50 [7] was 60.6 µM, the inhibition [8] was 0% and the Activity [9] was 1531 nm. The Activity [10] was 275 nm, the Activity [11] was 122 kCounts and the inhibition [12] was 0%. The Activity [13] was 0.03 um, the IC90 [14] was less than 0.2 µg/mL and the inhibition [15] was greater than 90%. For the same compound, the Activity [16] was 270 kCounts and the Activity [17] was 115 kCounts.
For `CCSc1ccc(C(=O)Nc2nnc(-c3ccco3)o2)cc1`, the Activity [3] was 185 nm, the Activity [4] was 1123 nm and the Activity [18] was “Active”. It also gave an Activity [5] of 250 kCounts, an Activity [9] of 1151 nm and an Activity [10] of 182 nm. The IC50 [19] was 20.7 µM, the Activity [11] was 100 kCounts and the IC90 [14] was 0.71 µg/mL (≈ 2.25 µM). It also gave an inhibition [15] greater than 90%, an Activity [16] of 245 kCounts and an Activity [17] of 85 kCounts.
Compound `COc1cc(C=O)ccc1OCc1ccccc1COc1ccc(/C=C2/SC(=S)NC2=O)cc1OC` has an Activity [20] of 5 nm, an Activity [21] of 0 kCounts and an Activity [22] of 0 nm. For the same compound, the Activity [23] was 0 nm, the Activity [24] was 0 nm and the Activity [25] was 0 kCounts. For the same compound, the Activity [26] was 30 kCounts, the Activity [27] was 0 nm and the Activity [28] was 0 nm. It also gave an Activity [29] of 30 kCounts, an Activity [30] of 0 nm and an Activity [31] of 5 kCounts. The Activity [32] was 0 nm, the IC50 [7] was 10.1 µM and the Activity [33] was 100 nm. The Activity [34] was 4 kCounts, the Activity [35] was 0 Counts and the Activity [36] was 80 nm. The Activity [37] was 0 nm, the inhibition [38] was 83% and the Activity [39] was 80 nm. It also gave an Activity [40] of 0 nm, an inhibition [41] of 98% and an Activity [42] of 4 kCounts. For the same compound, the Activity [43] was 0 nm, the Activity [44] was 0 kCounts and the inhibition [45] was 55%. For the same compound, the Activity [46] was 5 kCounts, the Activity [47] was 2 kCounts and the Activity [48] was 2 kCounts. For the same compound, the inhibition [49] was 96%.
